Reference: ChEMBL document CHEMBL6103629 (J Med Chem, 2025)

What was measured:
LoVo [1] = test: Induction of apoptosis in human LoVo cells assessed as early apoptotic cells at 1 uM incubated for 24 hrs by Annexin-V-FITC-PI staining based flow cytometric analysis (reference value: 13.7 %); assay type: functional
LoVo [2] = test: Induction of apoptosis in human LoVo cells assessed as late apoptotic cells at 1 uM incubated for 24 hrs by Annexin-V-FITC-PI staining based flow cytometric analysis (reference value: 13.2 %); assay type: functional
LoVo [3] = test: Induction of apoptosis in human LoVo cells assessed as necrotic cells at 1 uM incubated for 24 hrs by Annexin-V-FITC-PI staining based flow cytometric analysis (reference value: 0.97 %); assay type: functional
LoVo [4] = test: Induction of apoptosis in human LoVo cells assessed as early apoptotic cells at 3 uM incubated for 24 hrs by Annexin-V-FITC-PI staining based flow cytometric analysis (reference value: 13.7 %); assay type: functional
LoVo [5] = test: Induction of apoptosis in human LoVo cells assessed as late apoptotic cells at 3 uM incubated for 24 hrs by Annexin-V-FITC-PI staining based flow cytometric analysis (reference value: 13.2 %); assay type: functional
LoVo [6] = test: Induction of apoptosis in human LoVo cells assessed as necrotic cells at 3 uM incubated for 24 hrs by Annexin-V-FITC-PI staining based flow cytometric analysis (reference value: 0.97 %); assay type: functional
[7] = Inhibition of DNA-PK (unknown origin) preincubated for 15 mins and measured after 60 mins by Z-LYTE screening; design: species or system Homo sapiens
[8] = Plasma protein binding in CD-1 mouse at 1 uM incubated for 5 hrs in HTD dialysis in the presence of verapamil by LC-MS/MS analysis relative to control; assay type: ADME, cell-free; settings: read-out: PPB (converted)
[9] = Plasma protein binding in Beagle dog at 1 uM incubated for 5 hrs in HTD dialysis in the presence of verapamil by LC-MS/MS analysis relative to control; assay type: ADME, cell-free, Canis lupus familiaris; settings: read-out: PPB (converted)
[10] = Drug metabolism in Sprague-Dawley rat plasma by LC-MS/MS analysis; assay type: ADME, cell-free; settings: 5 h, 1 µM
[11] = Stability in CD-1 mouse plasma assessed as half life by LC-MS/MS analysis; assay type: ADME, cell-free
[12] = Drug metabolism in CD-1 mouse liver cells at 2 uM incubated upto 120 mins by LC-MS/MS analysis; assay type: ADME, cell-based; settings: 2 h
[13] = Drug metabolism in Beagle dogs liver cells at 2 uM incubated upto 120 mins by LC-MS/MS analysis; assay type: ADME, cell-based, Canis lupus familiaris; settings: dog, 2 h
CYP2C9 = CYP2C9 (Homo sapiens, UniProt P11712); test: Inhibition of recombinant human CYP2C9 assessed as residual activity at 1 uM in the presence of NADPH incubated for 60 mins by LC-MS/MS analysis relative to control; assay type: ADME; settings: read-out: Activity
Sequence of CYP2C9 (P11712 whole entry): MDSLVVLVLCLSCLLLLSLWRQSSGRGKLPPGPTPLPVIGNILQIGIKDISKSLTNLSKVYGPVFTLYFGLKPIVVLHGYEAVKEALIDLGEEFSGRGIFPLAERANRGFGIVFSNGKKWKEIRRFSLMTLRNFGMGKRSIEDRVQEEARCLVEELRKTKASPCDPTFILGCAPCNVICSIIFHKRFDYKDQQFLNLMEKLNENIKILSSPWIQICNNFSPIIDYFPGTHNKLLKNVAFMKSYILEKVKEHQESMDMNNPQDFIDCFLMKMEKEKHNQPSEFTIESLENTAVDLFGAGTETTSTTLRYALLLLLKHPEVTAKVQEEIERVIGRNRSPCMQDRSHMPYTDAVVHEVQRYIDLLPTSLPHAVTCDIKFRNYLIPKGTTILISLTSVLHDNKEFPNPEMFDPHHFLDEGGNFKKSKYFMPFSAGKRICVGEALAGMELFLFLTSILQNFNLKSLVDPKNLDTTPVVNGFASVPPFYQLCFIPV

CYP2C19 = CYP2C19 (Homo sapiens, UniProt P33261); test: Inhibition of recombinant human CYP2C19 assessed as residual activity at 1 uM in the presence of NADPH incubated for 60 mins by LC-MS/MS analysis relative to control; assay type: ADME; settings: read-out: Activity
Sequence of CYP2C19 (P33261 whole entry): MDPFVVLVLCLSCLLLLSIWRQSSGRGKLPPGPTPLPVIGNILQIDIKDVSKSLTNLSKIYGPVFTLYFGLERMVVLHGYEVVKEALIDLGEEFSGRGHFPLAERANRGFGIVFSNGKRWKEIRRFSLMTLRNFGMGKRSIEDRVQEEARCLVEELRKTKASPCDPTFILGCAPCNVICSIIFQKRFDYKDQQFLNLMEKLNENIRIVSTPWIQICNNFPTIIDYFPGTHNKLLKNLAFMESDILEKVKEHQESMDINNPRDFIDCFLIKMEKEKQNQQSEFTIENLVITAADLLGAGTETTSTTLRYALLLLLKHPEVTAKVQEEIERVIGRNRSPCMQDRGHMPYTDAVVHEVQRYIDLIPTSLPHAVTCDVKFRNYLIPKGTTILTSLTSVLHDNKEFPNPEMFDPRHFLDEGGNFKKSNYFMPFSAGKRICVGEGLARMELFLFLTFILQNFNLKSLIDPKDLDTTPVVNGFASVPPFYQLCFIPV

CYP3A4 = CYP3A4 (Homo sapiens, UniProt P08684); test: Inhibition of recombinant human CYP3A4 assessed as residual activity at 1 uM in the presence of NADPH incubated for 60 mins by LC-MS/MS analysis relative to control; assay type: ADME; settings: read-out: Activity
Sequence of CYP3A4 (P08684 whole entry): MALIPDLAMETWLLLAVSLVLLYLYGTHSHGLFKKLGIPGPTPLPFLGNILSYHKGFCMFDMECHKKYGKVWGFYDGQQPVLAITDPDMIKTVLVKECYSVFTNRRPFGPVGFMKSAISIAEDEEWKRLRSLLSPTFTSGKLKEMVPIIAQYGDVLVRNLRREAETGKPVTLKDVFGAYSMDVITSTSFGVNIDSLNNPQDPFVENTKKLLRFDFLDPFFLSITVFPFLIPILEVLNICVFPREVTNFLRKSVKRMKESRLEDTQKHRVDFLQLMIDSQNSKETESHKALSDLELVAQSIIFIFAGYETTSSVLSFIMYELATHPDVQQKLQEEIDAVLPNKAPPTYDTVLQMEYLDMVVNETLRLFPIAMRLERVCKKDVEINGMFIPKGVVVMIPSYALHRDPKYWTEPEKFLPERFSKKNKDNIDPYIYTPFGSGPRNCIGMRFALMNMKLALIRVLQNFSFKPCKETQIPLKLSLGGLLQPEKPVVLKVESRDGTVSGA

Cytochrome P450 2D6 = Cytochrome P450 2D6 (Homo sapiens, UniProt P10635); test: Inhibition of CYP2D6 in human liver microsomes in the presence of NADPH incubated for 60 mins by LC-MS/MS analysis; assay type: ADME, Microsome
Sequence of Cytochrome P450 2D6 (P10635 whole entry): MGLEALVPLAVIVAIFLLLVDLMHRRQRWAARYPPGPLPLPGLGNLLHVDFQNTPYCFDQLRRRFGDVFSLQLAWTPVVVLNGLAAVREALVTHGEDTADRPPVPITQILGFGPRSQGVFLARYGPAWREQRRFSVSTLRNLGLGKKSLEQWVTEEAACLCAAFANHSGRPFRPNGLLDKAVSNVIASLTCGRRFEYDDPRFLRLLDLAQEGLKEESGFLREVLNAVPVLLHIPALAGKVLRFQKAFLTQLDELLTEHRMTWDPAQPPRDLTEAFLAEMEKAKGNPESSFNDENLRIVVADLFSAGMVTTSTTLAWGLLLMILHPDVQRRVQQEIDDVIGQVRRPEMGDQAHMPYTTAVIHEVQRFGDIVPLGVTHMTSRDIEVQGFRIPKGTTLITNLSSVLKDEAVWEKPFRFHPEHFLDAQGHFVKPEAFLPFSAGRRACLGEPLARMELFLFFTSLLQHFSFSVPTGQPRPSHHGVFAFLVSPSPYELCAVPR

Cytochrome P450 2C19 = Cytochrome P450 2C19 (Homo sapiens, UniProt P33261); test: Inhibition of CYP2C19 in human liver microsomes in the presence of NADPH incubated for 60 mins by LC-MS/MS analysis; assay type: ADME, Microsome
Sequence of Cytochrome P450 2C19 (P33261 whole entry): as the sequence (P33261 whole entry) above

Cytochrome P450 3A4 [14] = biological target: T1, Cytochrome P450 3A4 (Homo sapiens, UniProt P08684); test: Inhibition of CYP3A4 in human liver microsomes using testosterone as substrate and in presence of NADPH incubated for 60 mins by LC-MS/MS analysis; assay type: ADME, Microsome
T1 sequence (P08684 whole entry): as the sequence (P08684 whole entry) above

Cytochrome P450 3A4 [15] = biological target: T1, Cytochrome P450 3A4; test: Inhibition of CYP3A4 in human liver microsomes using midazolam as substrate and in presence of NADPH incubated for 60 mins by LC-MS/MS analysis; assay type: ADME, Microsome
[16] = Induction of CYP2B6 mRNA expression in human primary hepatocyte isolated from YND donor at 0.1 to 10 uM incubated for 72 hrs by real-time PCR analysis; assay type: ADME, cell-based; settings: hepatocytes, dose 0.1-10 µM
[17] = Induction of CYP3A4 mRNA expression in human primary hepatocyte isolated from YND donor at 0.1 to 10 uM incubated for 72 hrs by real-time PCR analysis; assay type: ADME, cell-based; settings: hepatocytes, dose 0.1-10 µM
[18] = Induction of CYP1A2 mRNA expression in human primary hepatocyte isolated from RAS donor at 0.1 to 10 uM incubated for 72 hrs by real-time PCR analysis; assay type: ADME, cell-based; settings: hepatocytes, dose 0.1-10 µM
[19] = Induction of CYP2B6 mRNA expression in human primary hepatocyte isolated from DZM donor at 0.1 to 10 uM incubated for 72 hrs by real-time PCR analysis; assay type: ADME, cell-based; settings: hepatocytes, dose 0.1-10 µM
Hepatocyte = test: Cytotoxicity against human primary hepatocytes isolated from RAS donor at 0.1 to 10 uM incubated for 72 hrs by cytotox-glo assay; assay type: toxicity, cell-based; settings: dose 0.1-10 µM
[20] = Toxicity in Beagle dogs assessed as effect on cardiovascular system at 5 to 20 mg/kg, po administrated as single dose upto 24 hrs; assay type: organism-based, Canis lupus familiaris; settings: dog, in vivo, dose 5-20 mg/kg
[21] = Toxicity in Sprague-Dawley rats assessed as effect on central nervous system at 10 to 40 mg/kg, po administrated as single dose upto 24 hrs; assay type: organism-based; settings: rat, in vivo, dose 10-40 mg/kg
JeKo-1 = test: Antitumor activity against human JeKo-1 cells xenografted in female CB17 SCID mouse assessed as tumor growth inhibition at 40 mg/kg BID, po administered as 3 days on and 4 days off schedule for 24 days relative to control; assay type: functional; settings: JeKo-1, 576 h, time 24 day, read-out: TGI
[22] = Toxicity in female CB17 SCID mouse xenografted with human JeKo-1 cells assessed as body weight at 40 mg/kg BID, po administered as 3 days on and 4 days off schedule for 24 days; assay type: organism-based; settings: in vivo, 576 h, time 24 day
LoVo [23] = test: Antitumor activity against human LoVo cells xenografted in female Balb/c nude mouse assessed as tumor growth inhibition at 20 mg/kg QD, po measured every 3 days for 25 days relative to control; assay type: functional; settings: 600 h, time 25 day, read-out: TGI
[24] = Toxicity in female Balb/c nude mouse xenografted with human LoVo cells assessed as body weight at 40 mg/kg QD, po measured every 3 days for 25 days; assay type: organism-based; settings: in vivo, 600 h, time 25 day
[25] = Toxicity in male Balb/c nude mouse xenografted with human 22Rv1 cells assessed as body weight at 40 mg/kg QD, po measured every 3 days for 25 days at 10 to 60 mg/kg QD, po measured every 3 days for 18 days; assay type: organism-based; settings: in vivo, 432 h, time 18 day
[26] = Toxicity in female Balb/c nude mouse xenografted with human NCI-H1703 cells assessed as body weight at 40 mg/kg QD, po administered as 3 days on and 4 days off schedule for 4 weeks; assay type: organism-based; settings: in vivo, 672 h, time 28 day

IC50 [7]: 0.24 µM | fraction unbound at 5 h, 1 µM [8]: 0.361 | fraction unbound at 5 h, 1 µM [9]: 0.256 | Drug metabolism [10]: metabolite_notdetected | half-life [11]: > 2 h | Drug metabolism [12]: metabolite_detected | Drug metabolism [13]: metabolite_detected | activity at 1 h, 1 µM (CYP2C9): 102% | activity at 1 h, 1 µM (CYP2C19): 109% | activity at 1 h, 1 µM (CYP3A4): 73.3% | IC50 (Cytochrome P450 2D6): > 100 µM | IC50 (Cytochrome P450 2C19): 54.2 µM | IC50 (Cytochrome P450 3A4 [14]): 41.5 µM | IC50 (Cytochrome P450 3A4 [15]): 48.4 µM | Activity [16]: Not_active | Activity [17]: Active | Activity [18]: Not_active | Activity [19]: Active
SMILES: Cc1nn(-c2cccnc2)c(C)c1-c1cc(N2CC3CCC(C2)O3)nc2c(-c3ccn[nH]3)cnn12.O=C(O)/C=C/C(=O)O
Activity (LoVo [1]): 18.2% | Activity (LoVo [2]): 10% | Activity (LoVo [3]): 0.8% | Activity (LoVo [4]): 23.8% | Activity (LoVo [5]): 19.8% | Activity (LoVo [6]): 2.65% | Activity (Hepatocyte): Non-toxic | Activity [20]: Non-toxic | Activity [21]: Non-toxic | inhibition in vivo at 40 mg/kg (JeKo-1): 90.6% | Activity [22]: Non-toxic | inhibition in vivo at 20 mg/kg (LoVo [23]): 26.9% | Activity [24]: Non-toxic | Activity [25]: Non-toxic | Activity [26]: Non-toxic
